# Measured values taken from paper PMC8968665, “Verteporfin is a substrate-selective γ-secretase inhibitor that binds the amyloid precursor protein transmembrane domain” (The Journal of Biological Chemistry, 2022).
# “Also recorded” adds a separate entry of the source. Like-named read-outs stand apart in the source and are kept apart here.
# What was measured:
# [1] = test system: T1, C99 T761A; test: TROSY NMR titration of C99 T761A mutant by verteporfin; type: binding, human; conditions: LMPG micelles, up to 300 µM verteporfin, n=1
# T1 construct: the transmembrane 99 residue C-terminal (C99) domain; hexa-His; made in house
# Method: A Bruker Avance III 600 MHz NMR spectrometer equipped with a cryoprobe (CPTCI) and automated sample changer (SampleJet) was used to collect NMR spectra. Sample details are described above. For high-throughput screening data collection, the ^15N-^1H BEST-TROSY (b_trosy3gpph.2) experiment with 64 scans for each of 96 increments and a relaxation delay of 200 ms was run at 318 K for a total data acquisition time of 35 min per sample. To achieve enhanced signal-to-noise ratio, follow-up titrations and control experiments were conducted using the BEST-TROSY pulse program with 200 scans per 96 increments at 318 K, for a total data acquisition time of 110 min per sample. Data were processed using Bruker Topspin 3.6 using a Gaussian window function with a line broadening of -10 and a Gaussian max of 0.1 in both dimensions. NMR data were then further processed and analyzed using NMR-FAM SPARKY, plotted using GraphPad Prism 9, and prepared for publication figures using Affinity Designer.
# [2] = test system: T2, C99; test: 2D 1H,1H-NOESY of 1:1 verteporfin:C99 mixture; type: binding, human; conditions: 300 μM C99 and 300 μM verteporfin, 2.5% d27-LMPG
# T2 construct: the transmembrane 99 residue C-terminal (C99) domain; His tag (either the C-terminal hexa-His that is kept, or the N-terminal His of C99-NT2 removed by thrombin); made in house; host or cells: E. coli BL21DE3
# Method: A sample was prepared containing 300 μM C99 and 300 μM Verteporfin in 2.5% d^27-LMPG (deuterated alkyl chains), 50 mM d^4-Imidazole (deuterated imidazole), 100 mM NaCl, 0.5 mM EDTA, 1 mM DSS, pH 6.5 in 85% D2O. The ^1H-^1H NOESY experiment was recorded on the 800 MHz spectrometer with a mixing time of 120 ms, relaxation delay of 2 s, 4k × 1k data acquisition matrix, using the standard Bruker pulse program (noesyphpr).
# [3] = test system: T3, C99; test: Glutaraldehyde cross-linking of verteporfin–C99 mixtures; set-up: species or system human; conditions: LMPG micelles, versus DMSO control, n=3
# T3 construct: the transmembrane 99 residue C-terminal (C99) domain; made in house; host or cells: E. coli BL21DE3, pET21b
# Method: C-terminally His-tagged C99 was expressed from E. coli as mentioned above, and the sample was eluted into a buffer containing 0.1% w/v LMPG, 350 mM Imidazole, 100 mM NaCl, pH 7.8. The protein sample was buffer swapped into GA X-linking buffer containing 0.25% w/v LMPG, 250 mM imidazole, 100 mM NaCl, pH 7.8, and the protein was concentrated to a stock of 300 μM C99. Protein stocks were either used right away or flash frozen in LN2 and stored at −80 °C until further use.
# On the day of the experiment, fresh glutaraldehyde (from 25% w/v ampoule) was used to prepare serial dilutions and stored on ice. Reaction volumes were set at 50 μl, containing 30 μM C99, 25 mM Imidazole, 100 mM NaCl, pH 7.8, and 2.5% w/v LMPG. For a typical GA reaction setup, the following components were added to Eppendorf tubes in this specific order: 5 μl of 300 μM C99 was added to the bottom of the tube, followed by 6 μl of 20% w/w LMPG solution, then the sample was diluted to 50 μl using 39 μl of GA X-linking buffer. The sample was mixed by vortex and allowed to sit for at least 30 min. After incubation, 1 μl of Verteporfin stock (typically 10 mM in DMSO) was added to the mixture, vortexed, and allowed to incubate for at least another 30 min in the dark. […] Then, SDS loading buffer was added directly to the reaction tubes, and the samples were visualized using SDS-PAGE and analyzed by densitometry using ImageJ. […]
# [4] = target: T4, γ-secretase cleavage of C100-Flag (C99) (Homo sapiens, UniProt P05067); test: γ-Secretase assay, C100-FLAG cleavage, AICD by anti-Flag Western blot; type: biochemical
# T4 construct: C100 is C99 with an added N-terminal Met residue; made in house
# T4 sequence (P05067 672-770 limits assumed): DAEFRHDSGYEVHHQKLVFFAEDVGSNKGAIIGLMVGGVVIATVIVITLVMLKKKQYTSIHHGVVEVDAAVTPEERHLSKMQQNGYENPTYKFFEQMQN
# Method: The γ-secretase-dependent proteolysis assays with both substrates (C100-FLAG and HexaHis Notch 1 JM/TM) were performed in a weak zwitterionic detergent (CHAPSO, 3-[(3- cholamidopropyl)dimethylammonio]-2-hydroxy-1-propanesulfonate) solubilized conditions ([79], [80]). C100 is C99 with an added N-terminal Met residue. […] Proteolytic reactions were initiated by adding purified substrates (either C100-FLAG(79) or HexaHis-Notch 1 JM/TM(77)) and incubating at 37 °C (16 h for C100Flag and 4 h for HexaHis-Notch 1 JM/TM). Reactions were quenched with SDS, and the cleaved intracellular domain products (AICD-FLAG released from C100-FLAG or truncated intracellular domain (NICD) released from the proteolysis of Hexa-His Notch 1 JM/TM) were visualized by Western blot using specific primary antibodies, anti-FLAG antibody for FLAG-tagged AICD, and neoepitope-specific anti-V1744 antibody for NICD ([80], [83], [84]).
# [5] = Verteporfin aggregation and LMPG micelle size (DLS, 1D 1H NMR); type: physicochemical
# Method: Samples were made according to NMR sample conditions. Solutions were first filtered with a 0.2 μm syringe filter then centrifuged at […] to remove insoluble debris. The solution was then added to the inner chamber of the disposable DLS cuvette. The disposable DLS cuvette was capped and loaded in the DLS instrument. Experiments were carried out at 25 °C. The DLS software (Dynamics 7.5 software; Wyatt Technologies) calculates an apparent hydrodynamic radius (Rh) via the Stokes–Einstein equation (Equation 6):(6) Rh=kT/6πηDt where k is Boltzmann’s constant, T is the absolute temperature, η is sample viscosity, and Dt is the diffusion coefficient. The apparent molecular weight of the detergent or verteporfin particles was calculated in the Dynamics software, as based on the measured apparent radius of hydration, using the assumption that the density of the particle was similar to that of a globular protein.
substance,measurement,setting,value
verteporfin,binding to C99 T761A,[1],complete lack of binding; also recorded: binding was disrupted
same,direct intermolecular contact with C99 (NOESY cross-peaks),[2],confirms direct binding
same,change in C99 oligomeric state (cross-linking),[3],no change in oligomeric state; also recorded: no increase in higher-order C99 species
same,IC50,"[4]; 30 nM purified γ-secretase, C100-Flag, 16 h, 37 °C, n = 3, read-out: IC50, inhibition of AICD production",164 ± 45 µM
same,degree of inhibition of C99 cleavage at saturating verteporfin,[4]; 30 nM γ-secretase,approximately 75%
same,C100-Flag cleavage efficiency (Western blot),"[4]; 100 µM verteporfin, 2 µM C100-Flag, 1 nM γ-secretase, Fig. S6A",greatly reduced
same,IC50,"[4]; depending on assay conditions (1 nM to 30 nM enzyme), read-out: IC50 range for γ-secretase cleavage of C99",15 to 164 µM
same,effect on LMPG micelle particle size (DLS),"[5]; 0 to 200 μM verteporfin, 2.5% LMPG, n = 3",only modest effects on micelle particle size; also recorded: insensitive
same,state of verteporfin in micelle-free aqueous solution (1H NMR line width),"[5]; 100 μM verteporfin, LMPG below CMC, pH 6.5",aggregate formation
same,LMPG concentration at which soluble verteporfin aggregates are fully dispersed (DLS),"[5]; 100 μM verteporfin, n = 3",50 mM
